Article PMC3269548 (Neuropharmacology, 2011)
“And” between values parts separate entries of the source, which are not always exact repeats. Equal entries are not always repeated. “Also recorded” adds a separate entry of the source. Where two headings read alike, the source gives them in different places.

Key:
[1] = target: GluN1/GluN2A NMDA receptor (Rattus norvegicus, UniProt P35439+Q00959); type: cell-based; conditions: for IC50: IC50 GluN1/GluN2A
[2] = target: GluN1/GluN2B NMDA receptor (Rattus norvegicus, UniProt P35439+Q00960); type: cell-based; conditions: 10 μM L-glutamate plus 10 μM glycine, ± s.e.m., n ≥ 4
Chain of GluN1/GluN2B NMDA receptor (Q00960 27-1482, other chains not shown): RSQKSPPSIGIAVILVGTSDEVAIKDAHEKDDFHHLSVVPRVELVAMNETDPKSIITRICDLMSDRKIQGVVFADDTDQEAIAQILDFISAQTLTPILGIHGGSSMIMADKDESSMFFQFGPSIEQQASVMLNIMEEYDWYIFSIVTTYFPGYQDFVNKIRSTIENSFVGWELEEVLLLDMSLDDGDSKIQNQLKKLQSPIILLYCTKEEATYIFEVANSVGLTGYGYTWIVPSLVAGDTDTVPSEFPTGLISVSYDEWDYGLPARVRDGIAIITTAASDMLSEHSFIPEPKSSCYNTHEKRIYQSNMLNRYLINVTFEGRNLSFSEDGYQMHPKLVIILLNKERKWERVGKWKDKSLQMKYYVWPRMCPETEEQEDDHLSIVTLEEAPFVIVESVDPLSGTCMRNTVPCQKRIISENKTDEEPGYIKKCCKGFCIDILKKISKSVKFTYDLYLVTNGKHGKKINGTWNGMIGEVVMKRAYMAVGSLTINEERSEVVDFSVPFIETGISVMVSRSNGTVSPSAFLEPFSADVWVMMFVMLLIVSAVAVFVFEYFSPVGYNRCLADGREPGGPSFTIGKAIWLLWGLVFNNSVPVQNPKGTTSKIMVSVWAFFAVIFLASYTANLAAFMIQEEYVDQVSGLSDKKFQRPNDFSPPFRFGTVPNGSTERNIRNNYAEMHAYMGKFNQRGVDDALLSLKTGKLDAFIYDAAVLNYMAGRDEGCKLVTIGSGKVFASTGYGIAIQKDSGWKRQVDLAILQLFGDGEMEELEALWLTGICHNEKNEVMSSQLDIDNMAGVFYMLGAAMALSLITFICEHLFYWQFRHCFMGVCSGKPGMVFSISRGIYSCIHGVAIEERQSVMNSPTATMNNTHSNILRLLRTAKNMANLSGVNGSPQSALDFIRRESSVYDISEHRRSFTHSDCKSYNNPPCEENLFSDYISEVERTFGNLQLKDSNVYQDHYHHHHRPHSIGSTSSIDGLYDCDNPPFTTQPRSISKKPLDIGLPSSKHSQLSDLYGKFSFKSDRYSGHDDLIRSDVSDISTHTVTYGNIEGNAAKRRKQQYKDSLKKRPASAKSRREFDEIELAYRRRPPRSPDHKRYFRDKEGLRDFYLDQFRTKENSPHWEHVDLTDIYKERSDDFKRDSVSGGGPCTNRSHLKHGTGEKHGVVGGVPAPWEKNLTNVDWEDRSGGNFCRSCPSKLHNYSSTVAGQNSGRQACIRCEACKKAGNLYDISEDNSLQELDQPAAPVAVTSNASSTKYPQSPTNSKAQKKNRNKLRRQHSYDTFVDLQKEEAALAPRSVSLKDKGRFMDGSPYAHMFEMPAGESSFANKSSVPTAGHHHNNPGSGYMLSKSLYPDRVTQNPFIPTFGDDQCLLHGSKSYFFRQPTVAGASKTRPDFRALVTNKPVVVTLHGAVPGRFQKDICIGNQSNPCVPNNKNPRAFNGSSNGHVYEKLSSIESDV

[3] = target: GluN1/GluN2C NMDA receptor (Rattus norvegicus, UniProt P35439+Q00961); type: cell-based; conditions: 10 μM L-glutamate plus 10 μM glycine, ± s.e.m., n ≥ 4
Chain of GluN1/GluN2C NMDA receptor (Q00961 20-1237, other chains not shown): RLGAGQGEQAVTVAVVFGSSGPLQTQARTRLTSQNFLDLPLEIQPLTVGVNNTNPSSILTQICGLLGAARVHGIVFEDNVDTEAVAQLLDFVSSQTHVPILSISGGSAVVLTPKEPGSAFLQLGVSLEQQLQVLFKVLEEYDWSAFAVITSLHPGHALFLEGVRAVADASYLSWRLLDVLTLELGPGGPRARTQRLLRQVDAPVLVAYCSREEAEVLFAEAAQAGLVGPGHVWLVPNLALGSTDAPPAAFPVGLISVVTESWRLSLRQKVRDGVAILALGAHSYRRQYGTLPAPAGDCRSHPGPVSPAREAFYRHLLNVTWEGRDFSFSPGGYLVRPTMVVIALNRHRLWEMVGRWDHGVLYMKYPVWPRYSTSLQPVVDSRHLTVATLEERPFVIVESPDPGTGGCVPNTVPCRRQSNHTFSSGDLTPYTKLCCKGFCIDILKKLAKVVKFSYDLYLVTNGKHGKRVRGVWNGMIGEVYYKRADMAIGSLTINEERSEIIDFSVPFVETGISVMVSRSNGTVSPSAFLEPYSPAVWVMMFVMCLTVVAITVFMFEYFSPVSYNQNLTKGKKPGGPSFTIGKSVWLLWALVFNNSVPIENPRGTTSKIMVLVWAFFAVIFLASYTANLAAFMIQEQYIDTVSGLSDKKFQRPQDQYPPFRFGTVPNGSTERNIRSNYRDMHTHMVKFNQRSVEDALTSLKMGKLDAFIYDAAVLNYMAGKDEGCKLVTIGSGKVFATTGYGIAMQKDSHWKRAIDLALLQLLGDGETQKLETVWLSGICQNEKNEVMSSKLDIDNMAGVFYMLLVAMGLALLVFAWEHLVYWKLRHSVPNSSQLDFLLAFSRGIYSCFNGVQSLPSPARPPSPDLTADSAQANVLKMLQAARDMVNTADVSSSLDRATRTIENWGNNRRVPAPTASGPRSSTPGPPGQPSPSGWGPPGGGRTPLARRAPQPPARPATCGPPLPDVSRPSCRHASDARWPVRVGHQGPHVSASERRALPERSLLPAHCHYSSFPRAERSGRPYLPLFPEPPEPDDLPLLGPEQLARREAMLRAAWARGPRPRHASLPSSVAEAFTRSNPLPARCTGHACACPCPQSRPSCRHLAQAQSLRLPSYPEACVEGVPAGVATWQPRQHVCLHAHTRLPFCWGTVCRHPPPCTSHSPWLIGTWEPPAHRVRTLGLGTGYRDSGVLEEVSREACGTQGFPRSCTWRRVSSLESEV

[4] = target: GluN1/GluN2D NMDA receptor (Rattus norvegicus, UniProt P35439+Q62645); type: cell-based; conditions: for IC50: IC50 GluN1/GluN2D
[5] = tested on: GluN1/GluN2A-D NMDA receptors; type: cell-based
[6] = tested on: GluN1/GluN2A receptors with the NTD deleted on both the GluN1 and GluN2 subunits; test: Inhibition of NTD-deleted GluN1/GluN2A receptor responses in Xenopus oocytes; type: cell-based
[7] = tested on: GluN1/GluN2D receptors with the NTD deleted on both the GluN1 and GluN2 subunits; test: Inhibition of NTD-deleted GluN1/GluN2D receptor responses in Xenopus oocytes; type: cell-based
AMPA receptors = test: Preliminary studies of antagonist activity at AMPA receptors
[8] = 10 μM L-glutamate plus 10 μM glycine, ± s.e.m., n ≥ 4
[9] = 10 μM L-glutamate plus 10 μM glycine, −60 mV, ± s.e.m., n ≥ 4

Chain of GluN1/GluN2A NMDA receptor (Q00959 23-1464, other chains not shown): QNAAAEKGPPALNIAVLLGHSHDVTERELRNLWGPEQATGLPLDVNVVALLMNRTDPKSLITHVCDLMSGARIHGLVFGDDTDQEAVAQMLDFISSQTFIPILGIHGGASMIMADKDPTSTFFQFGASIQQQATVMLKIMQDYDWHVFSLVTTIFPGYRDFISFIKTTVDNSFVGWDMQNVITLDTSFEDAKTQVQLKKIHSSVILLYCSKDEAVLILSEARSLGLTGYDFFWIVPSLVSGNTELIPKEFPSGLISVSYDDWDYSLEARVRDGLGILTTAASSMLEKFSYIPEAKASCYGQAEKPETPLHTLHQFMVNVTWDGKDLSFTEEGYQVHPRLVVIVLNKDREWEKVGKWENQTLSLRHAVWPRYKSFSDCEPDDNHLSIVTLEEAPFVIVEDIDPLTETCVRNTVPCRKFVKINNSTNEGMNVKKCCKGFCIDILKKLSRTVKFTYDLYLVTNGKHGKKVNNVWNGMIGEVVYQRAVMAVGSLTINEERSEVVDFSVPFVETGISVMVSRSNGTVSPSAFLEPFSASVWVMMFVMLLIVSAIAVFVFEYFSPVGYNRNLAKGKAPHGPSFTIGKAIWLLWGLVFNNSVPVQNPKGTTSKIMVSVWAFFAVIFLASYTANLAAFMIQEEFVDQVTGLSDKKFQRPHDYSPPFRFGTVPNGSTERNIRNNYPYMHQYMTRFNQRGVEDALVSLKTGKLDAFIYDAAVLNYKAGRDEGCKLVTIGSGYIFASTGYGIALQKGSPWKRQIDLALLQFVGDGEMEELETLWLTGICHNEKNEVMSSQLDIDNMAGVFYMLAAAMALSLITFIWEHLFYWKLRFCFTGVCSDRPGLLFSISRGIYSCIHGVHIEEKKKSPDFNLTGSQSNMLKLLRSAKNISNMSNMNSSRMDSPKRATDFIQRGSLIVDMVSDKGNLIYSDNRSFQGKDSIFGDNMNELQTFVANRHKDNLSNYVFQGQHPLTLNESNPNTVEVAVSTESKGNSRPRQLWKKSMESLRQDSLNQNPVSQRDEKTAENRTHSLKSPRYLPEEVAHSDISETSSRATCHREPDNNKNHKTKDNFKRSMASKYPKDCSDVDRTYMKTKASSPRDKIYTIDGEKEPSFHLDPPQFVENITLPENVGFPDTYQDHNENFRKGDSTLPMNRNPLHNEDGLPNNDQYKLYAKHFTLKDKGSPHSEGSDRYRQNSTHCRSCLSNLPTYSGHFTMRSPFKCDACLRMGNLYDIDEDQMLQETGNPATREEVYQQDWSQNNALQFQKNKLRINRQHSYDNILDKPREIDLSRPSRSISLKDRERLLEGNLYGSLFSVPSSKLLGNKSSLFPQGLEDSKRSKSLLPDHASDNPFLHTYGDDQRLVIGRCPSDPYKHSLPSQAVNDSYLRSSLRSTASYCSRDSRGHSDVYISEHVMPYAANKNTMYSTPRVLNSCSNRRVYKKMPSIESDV

Which results are given for `O=C(O)c1cc(Br)c2ccc(Br)cc2c1` [UBP628, 1,6-Dibromo-3-naphthoic acid]?
% Max. Inh. GluN1/GluN2A [1, 8]: 104.3 ± 4.3%; fold lower potency than UBP552 at GluN1/GluN2A ([1]; from IC50 values, Table 1): 3 fold; % Max. Inh. GluN1/GluN2B [2]: 84.4 ± 12.5%; % Max. Inh. GluN1/GluN2C [3]: 103.0 ± 7.1%; % Max. Inh. GluN1/GluN2D [4, 8]: 112.4 ± 21.3%; fold lower potency than UBP552 for GluN1/GluN2D ([4]; from IC50 values, Table 1): 33 fold

`O=C(O)c1cc2cc(Br)ccc2c(Br)c1O` [UBP552, 1,6-Dibromo-2-hydroxy-3-naphthoic acid] was tested. Which “% Max. Inh. GluN1/GluN2A” value [1, 8] did it give?
Its value is 105.6 ± 4.3%.

And the IC50 [1, 9]?
The IC50 was 6.29 ± 0.88 µM.

What about the IC50 ([1]; [Gly] 10 μM, [L-Glu] 2.0 μM) of the same molecule?
Its IC50 is 5.05 ± 0.73 µM.

And the IC50 ([1]; [Gly] 10 μM, [L-Glu] 300 μM)?
Its IC50 is 8.58 ± 0.84 µM.

What about the IC50 ([1]; [Gly] 300 μM, [L-Glu] 10 μM) of the same molecule?
Its IC50 is 10 ± 1.93 µM.

And the IC50 ([1]; [Gly] 300 μM, [L-Glu] 300 μM)?
The IC50 was 15.5 ± 1.73 µM.

And the “% Max. Inh. GluN1/GluN2B” value [2]?
The value was 108.3 ± 2.0%.

What about the “% Max. Inh. GluN1/GluN2D” value [4, 8] of the same molecule?
The value was 103.6 ± 2.2%.

And the “effect on oocytes expressing GluN1/GluN2D receptors without agonists” value ([4]; 100 μM compound in the absence of L-glutamate and glycine)?
The value was “no detectable effect”.

What about the IC50 [4, 9] of the same molecule?
Its IC50 is 3.35 ± 0.18 µM.

What about the IC50 ([4]; [Gly] 10 μM, [L-Glu] 0.3 μM) of the same molecule?
Its IC50 is 6.26 ± 0.58 µM.

What about the IC50 ([4]; [Gly] 10 μM, [L-Glu] 300 μM) of the same molecule?
Its IC50 is 3.35 ± 0.82 µM.

What about the IC50 ([4]; [Gly] 300 μM, [L-Glu] 10 μM) of the same molecule?
The IC50 was 3.73 ± 0.75 µM.

What about the IC50 ([4]; [Gly] 300 μM, [L-Glu] 300 μM) of the same molecule?
Its IC50 is 4.85 ± 0.27 µM.

And the “decrease of IC50 values” ([4]; increasing L-glutamate from 0.3 μM to 10 μM or to 300 μM, p < 0.05)?
The value was 46%.

What about the “ability to fully inhibit receptor responses” value ([5]; all GluN1/GluN2A-D receptors) of the same molecule?
Its value is “able to fully inhibit all receptor responses”.

What about the “inhibition of receptor responses in the absence of the NTD” value ([6]; NTD deleted on GluN1 and GluN2A (Figure 4C)) of the same molecule?
The value was “still able to inhibit”.

What about the “effect of NTD deletion on inhibitory potency” value ([6]; compared with wild-type GluN1/GluN2A) of the same molecule?
The value was “increased the potency”.

And the “inhibition of receptor responses in the absence of the NTD” value ([7]; NTD deleted on GluN1 and GluN2D (Figure 4C))?
The value was “still able to inhibit”.

And the “effect of NTD deletion on inhibitory potency” value ([7]; compared with wild-type GluN1/GluN2D)?
Its value is “decreased the inhibitory potency”.

What about the “antagonist activity at AMPA receptors” value (AMPA receptors) of the same molecule?
The value was “has antagonist activity”.

What does the source list for `O=C(O)c1cc2cc(-c3ccccc3)ccc2c(I)c1O` [UBP619, 2-hydroxy-1-iodo-6-phenyl-3-naphthoic acid]?
% Max. Inh. GluN1/GluN2A [1, 8]: 78.8 ± 2.5^CHI %; % Max. Inh. GluN1/GluN2B [2]: 82.1 ± 3.1%; % Max. Inh. GluN1/GluN2C [3]: 77.3 ± 5.0^EHI %; % Max. Inh. GluN1/GluN2D [4, 8]: 97.0 ± 2.2%

What does the source list for `O=C(O)c1cc2cc(Br)ccc2c(I)c1O` [UBP620, 6-bromo-2-hydroxy-1-iodo-3-naphthoic acid]?
% Max. Inh. GluN1/GluN2A [1, 8]: 90% and 90.5 ± 7.4%; % Max. Inh. GluN1/GluN2B [2]: 90% and 90.6 ± 10.7%; % Max. Inh. GluN1/GluN2C [3]: 96.1 ± 2.3%; % Max. Inh. GluN1/GluN2D [4, 8]: 107.1 ± 4.3%

Which “% Max. Inh. GluN1/GluN2A” value [1, 8] does the source give for `O=C(O)c1cc2cc(-c3ccccc3)ccc2cc1O` [UBP617, 2-hydroxy-6-phenyl-3-naphthoic acid] here?
The value was 71.5 ± 6.4C^c-iHI %.

What about the “% Max. Inh. GluN1/GluN2B” value [2] of the same molecule?
Its value is 56.8 ± 5.2^c-ic-ic-ic-iI %.

For `Oc1ccc2cc(Br)ccc2c1Br` [UBP644, 1,6-dibromo-2-naphthol], which “Inhibitory activity at NMDA receptors (Figure 2)” value ([5]; compound at 100 μM, GluN1/GluN2A-D, 10 μM L-glutamate plus 10 μM glycine) is on record?
The value was “virtually inactive; also recorded: eliminated activity”.
